Laboratory results taken from PubChem BioAssay (NCI).
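These data come from cells grown in 96-well plates and exposed to compound for 48 hours at five concentrations. Definition used: TGI = concentration required for complete inhibition of growth.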

Key:
Experiment in all cases: growth of human tumour cells (NCI), 48 h
HOP-92 NSCLC = tested on: HOP-92 NSCLC
HT29 colon = tested on: HT29 colon
DLD-1 colon = tested on: DLD-1 colon
IGROV1 ovarian = tested on: IGROV1 ovarian
DMS 273 small cell lung = tested on: DMS 273 small cell lung
EKVX NSCLC = tested on: EKVX NSCLC
M19-MEL melanoma = tested on: M19-MEL melanoma
UACC-62 melanoma = tested on: UACC-62 melanoma
NCI-H226 lung = tested on: NCI-H226 lung
RXF-631 renal = tested on: RXF-631 renal
HCT-116 colon = tested on: HCT-116 colon
CAKI-1 renal = tested on: CAKI-1 renal
HL-60(TB) leukemia = tested on: HL-60(TB) leukemia
LOX IMVI melanoma = tested on: LOX IMVI melanoma
SK-MEL-5 melanoma = tested on: SK-MEL-5 melanoma
HCT-15 colon = tested on: HCT-15 colon
SF-295 CNS = tested on: SF-295 CNS
U251 CNS = tested on: U251 CNS
SF-268 CNS = tested on: SF-268 CNS
UACC-257 melanoma = tested on: UACC-257 melanoma
RPMI-8226 leukemia = tested on: RPMI-8226 leukemia
COLO 205 colon = tested on: COLO 205 colon
OVCAR-5 ovarian = tested on: OVCAR-5 ovarian
A549 NSCLC = tested on: A549 NSCLC
ACHN renal = tested on: ACHN renal
SW-620 colon = tested on: SW-620 colon
TK-10 renal = tested on: TK-10 renal
SR leukemia = tested on: SR leukemia
DMS 114 small cell lung = tested on: DMS 114 small cell lung
CCRF-CEM leukemia = tested on: CCRF-CEM leukemia
NCI-H460 lung = tested on: NCI-H460 lung
SK-MEL-2 melanoma = tested on: SK-MEL-2 melanoma
OVCAR-3 ovarian = tested on: OVCAR-3 ovarian
KM12 colon = tested on: KM12 colon
M14 melanoma = tested on: M14 melanoma
MOLT-4 leukemia = tested on: MOLT-4 leukemia
A498 renal = tested on: A498 renal
LXFL 529 NSCLC = tested on: LXFL 529 NSCLC
HOP-62 NSCLC = tested on: HOP-62 NSCLC
UO-31 renal = tested on: UO-31 renal
NCI-H522 lung = tested on: NCI-H522 lung
786-0 renal = tested on: 786-0 renal
NCI-H23 lung = tested on: NCI-H23 lung
SF-539 CNS = tested on: SF-539 CNS
OVCAR-8 ovarian = tested on: OVCAR-8 ovarian
SK-MEL-28 melanoma = tested on: SK-MEL-28 melanoma
K-562 leukemia = tested on: K-562 leukemia
SK-OV-3 ovarian = tested on: SK-OV-3 ovarian
SNB-75 CNS = tested on: SNB-75 CNS
SNB-78 CNS = tested on: SNB-78 CNS
OVCAR-4 ovarian = tested on: OVCAR-4 ovarian
MALME-3M melanoma = tested on: MALME-3M melanoma
HCC-2998 colon = tested on: HCC-2998 colon
KM20L2 colon = tested on: KM20L2 colon
SNB-19 CNS = tested on: SNB-19 CNS

Measured: TGI

NC(=O)c1cn(C2OC(CO)C(O)C2O)c(=O)[nH]c1=O (stereo not drawn)
not listed: MALME-3M melanoma | HCC-2998 colon | KM20L2 colon | SNB-19 CNS
> 100 µM: all other assays above

NS(=O)(=O)c1cc2c(cc1Cl)NC(/C(=N/NC(=O)c1ccncc1)C1C(=O)NC(=O)NC1=O)=NS2(=O)=O
not listed: HT29 colon | NCI-H226 lung | SF-268 CNS | SR leukemia | NCI-H522 lung | NCI-H23 lung | SK-MEL-28 melanoma | SNB-75 CNS
> 100 µM: all other assays above
